These results are taken from patent US20240115577A1, “SMALL MOLECULE REGULATORS OF ALVEOLAR TYPE 2 CELL PROLIFERATION FOR THE TREATMENT OF PULMONARY DISEASES” (THE SCRIPPS RESEARCH INSTITUTE, priority 2021, published 2024).

In general, IC50 refers to the concentration at which inhibition is half-maximal.

SMILES strings stand for the structures. Entries after “also recorded” stand apart in the source; their conditions may differ. Read-outs that look alike come from different tables or passages of the source.

For one series, the target named is Human DPP4 (Homo sapiens (Human), UniProt P27487). Description: DPP4 activity assay (Sigma-Aldrich MAK088 kit). Format: biochemical. The following applies: Table 4; read-out: DPPIV IC50. As for the experimental part:
DPP4 activity assay. Human DPP4 activity assay data were obtained using a DPP4 Activity Assay Kit (Sigma-Aldrich, MAK088) according to the manufacturer's instructions. Briefly, 10 μL of DPP4 Assay Buffer was transferred per well in low volume 384-well plates before transferring 10 μL of diluted compound dissolved in DPP4 assay buffer. 5 μL of Master Reaction Mix containing a fluorescent substrate that becomes fluorescent upon cleavage by the enzyme. Fluorescence intensity measurements were recorded at 1-minute time intervals over the course of 20 minutes using an Envision Multimode Plate Reader (PerkinElmer).

The next series deals with Primary human AEC2s. Kind of series: AEC2 proliferation assay (Ki67 high content imaging). Format: cell-based. As for the experimental part: To identify small molecules capable of proliferating AEC2s, as disclosed herein, we first established a culture system with primary human small airway epithelial cells (SAECs) from a commercial source.
AEC2 proliferation assay. Primary human AEC2s were plated at a density of 1,500 cells per well in black 384-well plates (Greiner) coated with 10 ug/mL. Laminin (Life Technologies) in 50 μL of Small Airway Epithelial Cell Growth Medium (Lonza) without EGF, retinoic acid and with 5% BPE. 100 nL of compound dissolved in DMSO was then delivered using a Biomek FX instrument (Beckman Coulter) fitted with a pintool head (V&P Scientific).

Series [1] relates to bleomycin-induced lung fibrosis. Description: Bleomycin-induced lung fibrosis model. The following applies: 0.5 mg/kg IT once every four days, versus vehicle. It counts as in vivo, mouse. As for the experimental part:
Experimental Methods of Bleomycin Model Bleomycin (Hospira) was used to induce lung fibrosis in mice. Body weight matched (24 gram˜28 gram) male C57BL/6J mice at 10-12 weeks of age were selected to use in bleomycin model. For orally delivered DPP4 inhibitors. compounds were dissolved in PBS resulting in clear solution. […] For intratracheally delivered DPP4 inhibitors, compounds were dissolved in PBS resulting in clear solution. […] 0.5 U/kg Bleomycin or PBS in sham group was intratracheally injection into mice lung at day 0. […] All animals were sacrificed at day 20 after bleomycin injection. Bronchoalveolar lavage fluid (BALF) was retrieved using standard method. 1 ml 4% formalin was used to inflate the lung, which was subsequently fixed in 4% formalin for 24 hours and preserved in 70% EtOH until histological process. For readouts, body weight was measured every day; total protein content in BALF was quantified using BCA assay; pulmonary fibrosis was assessed using Masson's trichrome staining.

Series [2] can be described thus: IT pharmacokinetics of dutogliptin (1) and dutogliptin boronate (15). The following applies: for Plasma concentration of dutogliptin, individual animals / Bronchoalveolar lavage fluids concentration of dutogliptin, individual animals / Lung concentration of dutogliptin, individual animals: mice, 1.8 mg/kg IT dutogliptin boronate (cpd 15). It counts as in vivo, mouse. As for the experimental part: Like other […]. Dutogliptin (1) dosed IT in mice with PBS solution quickly cleared in lung (<24h. Table 8A). […] The parent drug dutogliptin was detected in plasma and lung. […] The drug was retained in the lung for over 48 h. The data clearly illustrated the unexpected lung retention ability of boronate prodrug 15.

In a further series the test system is alveolar epithelium. The following applies: Stone et al., Diab et al.; cited from earlier work.
Series [3] has as its system human pulmonary fibroblasts. Kind of series: Pulmonary fibroblast counter-assay. Format: cell-based. Particulars: at concentrations that promoted AEC2 proliferation.
The mark [4] stands for this setting: Homo sapiens, Table 4, promotion of AEC2 proliferation, read-out: AEC2 EC50.
The mark [5] stands for this setting: Homo sapiens, Table 5, read-out: AEC2 proliferation.

Human DPP4, sequence (P27487 whole entry): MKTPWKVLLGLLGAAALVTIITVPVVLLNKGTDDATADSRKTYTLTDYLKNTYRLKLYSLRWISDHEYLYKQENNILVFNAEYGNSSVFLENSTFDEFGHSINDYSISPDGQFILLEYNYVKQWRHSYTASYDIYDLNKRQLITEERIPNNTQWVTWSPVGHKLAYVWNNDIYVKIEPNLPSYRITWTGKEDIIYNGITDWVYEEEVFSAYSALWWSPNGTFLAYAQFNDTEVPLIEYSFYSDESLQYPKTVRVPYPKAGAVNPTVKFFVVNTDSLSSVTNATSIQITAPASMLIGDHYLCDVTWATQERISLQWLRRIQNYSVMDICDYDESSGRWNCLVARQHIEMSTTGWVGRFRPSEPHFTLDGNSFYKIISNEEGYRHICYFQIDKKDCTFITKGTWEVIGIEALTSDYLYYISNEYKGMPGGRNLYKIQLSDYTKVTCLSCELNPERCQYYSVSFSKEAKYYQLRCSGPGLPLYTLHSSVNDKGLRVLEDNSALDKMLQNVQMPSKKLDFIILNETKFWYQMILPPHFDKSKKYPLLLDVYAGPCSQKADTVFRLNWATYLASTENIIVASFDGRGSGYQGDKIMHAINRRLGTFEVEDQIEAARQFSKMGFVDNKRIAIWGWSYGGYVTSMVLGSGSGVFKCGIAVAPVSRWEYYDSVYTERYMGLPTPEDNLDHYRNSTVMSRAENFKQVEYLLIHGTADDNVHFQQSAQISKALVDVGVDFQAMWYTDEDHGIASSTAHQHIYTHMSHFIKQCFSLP

On to `CCOC(=O)C12CCC(NCC(=O)N3C[C@@H](F)C[C@H]3C#N)(CC1)CC2` [Cpd 2, ethyl 4-((2-((2S,4S)-2-cyano-4-fluoropyrrolidin-1-yl)-2-oxoethyl)amino)bicyclo[2.2.2]octane-1-carboxylate], for which the IC50 on Human DPP4 turned out to be 2.2 nM.

For `N#C[C@@H]1CCCN1C(=O)CNC12CC3C[C@@H](C1)C[C@@](O)(C3)C2` [Cpd 3, (2S)-1-(((1S,3R,5S)-3-hydroxyadamantan-1-yl)glycyl)pyrrolidine-2-carbonitrile], the EC50 in the series on Primary human AEC2s (setting [4]) and in the series on Primary human AEC2s (setting [5]) was 160 nM each time.

For the molecule `Cn1c(=O)cc(N2CCC[C@@H](N)C2)n(Cc2ccccc2C#N)c1=O` [Cpd 7, (R)-2-((6-(3-aminopiperidin-1-yl)-3-methyl-2,4-dioxo-3,4-dihydropyrimidin-1(2H)-yl)methyl)benzonitrile], the EC50 in the series on Primary human AEC2s (setting [4]) and in the series with Primary human AEC2s (setting [5]) was 110 nM each time.

With `CS(=O)(=O)n1cc2c(n1)CN([C@H]1CO[C@H](c3cc(F)ccc3F)[C@@H](N)C1)C2` [Cpd 9, (2R,3S,5R)-2-(2,5-difluorophenyl)-5-(2-(methylsulfonyl)-2,6-dihydropyrrolo[3,4-c]pyrazol-5(4H)-yl)tetrahydro-2H-pyran-3-amine], the EC50 in the series with Primary human AEC2s (setting [4]) and with Primary human AEC2s (setting [5]) was 43 nM throughout.

As for `Cn1c(=O)cc(N2CCC[C@@H](N)C2)n(Cc2cc(F)ccc2C#N)c1=O` [Cpd 10, (R)-2-((6-(3-aminopiperidin-1-yl)-3-methyl-2,4-dioxo-3,4-dihydropyrimidin-1(2H)-yl)methyl)-4-fluorobenzonitrile], the EC50 in the series with Primary human AEC2s (setting [4]) and in the series with Primary human AEC2s (setting [5]) was 67 nM throughout.

With `N[C@@H](CC(=O)N1CCc2c(nc(C(F)(F)F)nc2C(F)(F)F)C1)CN1CC(F)(F)CCC1=O` [Cpd 11, (S)-1-(2-amino-4-(2,4-bis(trifluoromethyl)-5,8-dihydropyrido[3,4-d]pyrimidin-7(6H)-yl)-4-oxobutyl)-5,5-difluoropiperidin-2-one], the EC50 in the series on Primary human AEC2s (setting [4]) and in the series with Primary human AEC2s (setting [5]) was 220 nM in each case.

Turning to `Cc1cc2ncc(C(=O)NCC(C)(C)NCC(=O)N3CCC[C@H]3C#N)cn2n1` [Cpd 12, (S)-N-(2-((2-(2-cyanopyrrolidin-1-yl)-2-oxoethyl)amino)-2-methylpropyl)-2-methylpyrazolo[1,5-a]pyrimidine-6-carboxamide], the EC50 in the series with Primary human AEC2s (setting [4]) and in the series with Primary human AEC2s (setting [5]) was 110 nM in each case.

`CC1(C)[C@@H]2C[C@H]3OB([C@@H]4CCCN4C(=O)CN[C@@H]4CCNC4)O[C@@]3(C)[C@H]1C2` [Cpd 15, 2-(((R)-pyrrolidin-3-yl)amino)-1-((R)-2-((3aS,4S,6S,7aR)-3a,5,5-trimethylhexahydro-4,6-methanobenzo[d][1,3,2]dioxaborol-2-yl)pyrrolidin-1-yl)ethan-1-one]: the BALF protein level result in series [1] is reported as “reduced”. The “plasma and lung levels of the boronate itself” value in series [2] (IT dosing, data not shown) is “very low and absent after 0.25 h”. The “Plasma concentration of dutogliptin, individual animals” value in series [2] (7.00 h), in series [2] (24.0 h), in series [2] (48.0 h), in series [2] (96.0 h) and in series [2] (168 h) was “BQL” in each case. The “Bronchoalveolar lavage fluids concentration of dutogliptin, individual animals” value in series [2] (48.0 h), in series [2] (96.0 h) and in series [2] (168 h) was “BQL” each time. Moreover, the “Lung concentration of dutogliptin, individual animals” value in series [2] (48.0 h), in series [2] (96.0 h) and in series [2] (168 h) was “BQL” each time. Further, the “conversion of the boronate to the active drug” value in series [2] (mouse IT pharmacokinetic study) is “convert to the active drug dutogliptin in both plasma and lung”. Also, the “lung exposure of dutogliptin after IT boronate versus IT dutogliptin itself” value in series [2] (mouse, in vivo) was “significantly higher; also recorded: much higher”.

As for `N#C[C@@H]1C[C@H](F)CN1C(=O)CNC12CCC(C(=O)O)(CC1)CC2` [Cpd 16, 4-((2-((2S,4S)-2-cyano-4-fluoropyrrolidin-1-yl)-2-oxoethyl)amino)bicyclo[2.2.2]octane-1-carboxylic acid], on Human DPP4, the IC50 was 1.2 nM.

Consider `COC(=O)C12CCC(NCC(=O)N3C[C@@H](F)C[C@H]3C#N)(CC1)CC2` [Cpd 17, methyl 4-((2-((2S,4S)-2-cyano-4-fluoropyrrolidin-1-yl)-2-oxoethyl)amino)bicyclo[2.2.2]octane-1-carboxylate], for which the IC50 at Human DPP4 was 1 nM.

Take `N#C[C@@H]1CCCN1C(=O)CNC12CC3C[C@H](CC(N)(C3)C1)C2` [Cpd 18, (2S)-1-(((1S,3R,5R)-3-aminoadamantan-1-yl)glycyl)pyrrolidine-2-carbonitrile]: the IC50 at Human DPP4 was determined as 38 nM.

With `CC#CCn1c(N2CCC[C@@H](N)C2)cc(=O)n(Cc2cccc(C(=O)OC)c2)c1=O` [Cpd 25, methyl (R)-3-((4-(3-aminopiperidin-1-yl)-3-(but-2-yn-1-yl)-2,6-dioxo-3,6-dihydropyrimidin-1(2H)-yl)methyl)benzoate], the half-inhibitory concentration (IC50) on Human DPP4 was determined as 6 nM.

Consider `N[C@@H](CC(=O)N1CCn2c(C(F)(F)F)nc(C(=O)O)c2C1)Cc1cc(F)c(F)cc1F` [Cpd 26, (R)-7-(3-amino-4-(2,4,5-trifluorophenyl)butanoyl)-3-(trifluoromethyl)-5,6,7,8-tetrahydroimidazo[1,5-a]pyrazine-1-carboxylic acid], for which the IC50 at Human DPP4 worked out at 0.8 nM.

On to `CCCCCCCCc1ccc(CCC(N)(CO)CO)cc1` [FTY-720], for which, in the series on Primary human AEC2s, the “AEC2 proliferation, result in words” value is recorded as “active”. Moreover, the “apoptosis and inflammatory cytokine release in alveolar epithelium” value in the series on alveolar epithelium is “inhibited apoptosis and inflammatory cytokine release”.

`N#Cc1ccc(NCCNCC(=O)N2CCC[C@H]2C#N)nc1` [NVP-728]: the EC50 in the series with Primary human AEC2s (FIG. 1B, 1C, read-out: EC50, AEC2 proliferation (ReFRAME screen hits)) was around 500 nM. Moreover, in series [3], the “total number, percent Ki67 positivity, or myofibroblast differentiation status of pulmonary fibroblasts” value was “did not increase”.

In the case of `CC(C)Oc1ccc(-c2nc(-c3cccc4c3CC[C@@H]4NCCO)no2)cc1C#N` [Ozanimod], the “AEC2 proliferation, result in words” value with Primary human AEC2s is listed as “active”.

Turning to `FC(F)(F)c1cccc(-c2noc(-c3cc(-c4ccccc4)c(C(F)(F)F)s3)n2)c1` [SEW-2871], the “AEC2 proliferation, result in words” value with Primary human AEC2s was “active”. Also, the “apoptosis and inflammatory cytokine release in alveolar epithelium” value in the series with alveolar epithelium was “inhibited apoptosis and inflammatory cytokine release”.

`CCc1cc(/C(C)=N/OCc2ccc(C3CCCCC3)c(C(F)(F)F)c2)ccc1CN1CC(C(=O)O)C1` [siponimod]: the EC50 with Primary human AEC2s (Homo sapiens, FIG. 1B, 1C, read-out: EC50, AEC2 proliferation (ReFRAME screen hits)) was around 100 nM. In addition, the “total number, percent Ki67 positivity, or myofibroblast differentiation status of pulmonary fibroblasts” value in series [3] is given as “did not increase”.
